Test results from patent US20250263426A1, “PDE4B INHIBITOR AND USE THEREOF” (Xizang Haisco Pharmaceutical Co., Ltd., priority 2022, published 2025).
Read-outs that look alike come from different tables or passages of the source.

How the values were obtained:
[1] = molecular target: PDE4D2 (Homo sapiens (Human), UniProt Q08499); experiment: Effect of compounds on PDE4D2 activity (fluorescence polarization kit); assay type: biochemical
Protocol: FP was usually represented by mP value.
[formula] • I∥ (S520): fluorescence intensity in parallel direction • I⊥ (P520): fluorescence intensity in perpendicular direction • G: G factor=1
[formula] • mP(sample): mP of the test compound in a reaction well • mP(negative control): mP in the negative control well • mP(positive control): mP in the positive control well
According to the calculated inhibition rate at each concentration, the IC50 value of each compound was calculated by GraphPad Prism 8 software.

[2] = molecular target: PDE4B2 (Homo sapiens (Human), UniProt Q07343); experiment: Effect of compounds on PDE4B2 activity (fluorescence polarization kit)
Sequence of PDE4B2 (Q07343 other isoform, or with tags, fused parts or gaps): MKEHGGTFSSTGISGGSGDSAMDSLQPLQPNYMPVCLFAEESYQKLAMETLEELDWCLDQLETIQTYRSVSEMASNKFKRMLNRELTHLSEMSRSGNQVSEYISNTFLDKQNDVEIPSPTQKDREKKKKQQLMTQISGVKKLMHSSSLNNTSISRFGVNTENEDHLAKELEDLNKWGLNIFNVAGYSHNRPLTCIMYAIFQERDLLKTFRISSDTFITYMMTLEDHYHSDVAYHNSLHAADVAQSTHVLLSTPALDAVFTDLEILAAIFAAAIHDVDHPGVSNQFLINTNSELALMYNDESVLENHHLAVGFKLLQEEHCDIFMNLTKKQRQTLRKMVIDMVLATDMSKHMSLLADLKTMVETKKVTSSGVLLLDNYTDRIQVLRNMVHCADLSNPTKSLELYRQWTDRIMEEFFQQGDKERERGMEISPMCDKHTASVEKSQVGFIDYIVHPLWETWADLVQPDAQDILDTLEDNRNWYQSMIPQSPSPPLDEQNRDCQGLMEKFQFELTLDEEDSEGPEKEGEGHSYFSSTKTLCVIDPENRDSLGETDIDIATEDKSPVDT

[3] = test system: human peripheral blood mononuclear cells (TNF-α release); experiment: Inhibition of LPS-induced TNF-α release from human peripheral blood mononuclear cells in vitro; assay type: cell-based; conditions: 4 h; for IC50: read-out: Re IC50
Protocol: 5. Detection of Inhibitory Activity of Compounds on the Release of Tumor Necrosis Factor-α (TNF-α) from Human Peripheral Blood Mononuclear Cells Induced by Lipopolysaccharide (LPS) In Vitro
The concentration of hPBMC cells was adjusted to 0.25×10^6 cells/mL with RPMI1640 medium and inoculated into a 96-well plate in an amount of 50000 cells per well. […] Incubation was carried out for 4 h in an incubator at 37° C. and 5% CO2. The cell supernatant was collected, and the content of TNF-α in the supernatant sample was detected by human TNF-α Elisa quantitative test kit (Sino Biological, Cat #KIT10602). The IC50 value was calculated using GraphPad Prism software.

[4] = relative IC50, hPBMC, 100 ng/mL LPS

Sequence of PDE4D2 (Q08499 303-809, change not shown): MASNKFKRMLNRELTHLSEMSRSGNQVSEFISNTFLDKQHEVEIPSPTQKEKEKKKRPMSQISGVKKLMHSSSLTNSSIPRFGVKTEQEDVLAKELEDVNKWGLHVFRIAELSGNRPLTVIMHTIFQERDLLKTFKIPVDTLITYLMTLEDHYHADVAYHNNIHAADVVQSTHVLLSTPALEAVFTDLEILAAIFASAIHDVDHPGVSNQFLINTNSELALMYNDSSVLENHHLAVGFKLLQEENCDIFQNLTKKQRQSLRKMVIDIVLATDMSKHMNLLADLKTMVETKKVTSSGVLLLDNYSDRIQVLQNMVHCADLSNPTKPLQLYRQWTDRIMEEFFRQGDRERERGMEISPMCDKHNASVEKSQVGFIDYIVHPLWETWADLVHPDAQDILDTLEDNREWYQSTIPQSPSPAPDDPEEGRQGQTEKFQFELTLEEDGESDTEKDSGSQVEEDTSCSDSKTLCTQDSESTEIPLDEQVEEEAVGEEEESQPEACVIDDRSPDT

| SMILES | IC50 [1] [nM] | IC50 ([2]; read-out: PDE4B2 IC50) [nM] | IC50 [2] [nM] | also measured |
| --- | --- | --- | --- | --- |
| [O-][S+]1CCc2nc(N3C[C@@H]4CC(c5ccc(Cl)cc5)=C[C@@H]4C3)nc(NC3CN(CCCF)C3)c21 (single isomer, unassigned) [Compound 24-2] | 10 to 50 | < 10 |  |  |
| CC#Cc1cnc(C2=CCN(c3nc4c(c(NC(C)(C)COC(N)=O)n3)[S+]([O-])CC4)CC2)nc1 (single isomer, unassigned) [Compound 110-1] |  |  |  | Max inhibition (%) ([3]; hPBMC, 100 ng/mL LPS): 88.09%; IC50 [3, 4]: < 10 nM |
| CC#Cc1cnc(C2=CCN(c3nc4c(c(NC(C)(C)COC(N)=O)n3)[S+]([O-])CC4)CC2)nc1 (single isomer, unassigned) [Compound 110-2] |  |  |  | Max inhibition (%) ([3]; hPBMC, 100 ng/mL LPS): 74.07%; IC50 [3, 4]: < 10 nM |
| [O-][S@@+]1CCCc2nc(N3CCN(c4ncc(Cl)cn4)CC3)nc(NC3(CO)CCC3)c21 [Compound 12-2] | 10 to 50 | < 10 |  |  |
| [O-][S@@+]1CCCc2nc(N3C[C@H]4CN(c5ccc6c(c5)CC6)C[C@H]4C3)nc(NC3(CO)CCC3)c21 [Compound 13-2] | 10 to 50 | < 10 |  |  |
| [O-][S@@+]1CCCc2nc(N3C[C@H]4CN(c5ncc(Cl)cn5)C[C@H]4C3)nc(NC3(CO)CCC3)c21 [Compound 14-1] | 10 to 50 | 10 to 50 |  |  |
| [O-][S@+]1CCCc2nc(N3C[C@H]4CN(c5ccc(Cl)cc5)C[C@H]4C3)nc(NC3(CO)CCC3)c21 [Compound 15-2] | 10 to 50 | < 10 |  |  |
| [O-][S@@+]1CCCc2nc(N3CCC=C(c4ccc(Cl)cc4)CC3)nc(NC3(CO)CCC3)c21 [Compound 16-2] | 10 to 50 | 10 to 50 |  |  |
| [O-][S@@+]1CCCc2nc(N3CCC=C(c4ncc(Cl)cn4)CC3)nc(NC3(CO)CCC3)c21 [Compound 17-2] | 10 to 50 | < 10 |  |  |
| O=C1CCCc2nc(N3CC4=C(CN(c5ncc(Cl)cn5)C4)C3)nc(NC3(CO)CCC3)c21 [Compound 19-1] | 10 to 50 | < 10 |  |  |
| [O-][S@+]1CCc2nc(N3CC=C(c4ncc(Cl)cn4)CC3)nc(NC3(CO)CCCC3)c21 [Compound 30] | < 10 |  | < 10 |  |
| CC(C)(CO)Nc1nc(N2CC=C(c3ncc(Cl)cn3)CC2)nc2c1[S+]([O-])CC2 (stereo not drawn) [Compound 31] | 10 to 50 |  | 10 to 50 |  |
| C#Cc1cnc(C2=CCN(c3nc4c(c(Nc5cccc(F)c5)n3)[S@@+]([O-])CC4)CC2)nc1 [Compound 36-2] | 10 to 50 | 10 to 50 |  |  |
| C#Cc1cnc(C2=CCN(c3nc4c(c(NC5(c6ncc[nH]6)CCC5)n3)[S@+]([O-])CC4)CC2)nc1 [Compound 37] |  |  |  | IC50 ([3]; Homo sapiens, PBMC): 10 to 50 nM; Emax ([3]; Homo sapiens, PBMC, hPBMC, 100 ng/mL LPS, read-out: Max inhibition (%)): 78.3% |
| NC(=O)OCC1(Nc2nc(N3CC=C(c4ncc(C5CC5)cn4)CC3)nc3c2[S@+]([O-])CC3)CCC1 [Compound 47] | < 10 |  |  | Max inhibition (%) ([3]; hPBMC, 100 ng/mL LPS): 80.45%; IC50 [3, 4]: < 10 nM |
| O=S1(=O)CCCc2nc(N3CC=C(c4ncc(Cl)cn4)CC3)nc(NC3(CO)CCC3)c21 [Compound 54] |  |  | 50 to 100 |  |
| NC(=O)OCC1(Nc2nc(N3CCC(c4ncc(Cl)cn4)CC3)nc3c2[S@+]([O-])CC3)CCC1 [Compound 55] |  |  | 50 to 100 |  |
| C#Cc1cnc(N2CCN(c3nc4c(c(NC5(COC(N)=O)CCC5)n3)[S@+]([O-])CC4)CC2)nc1 [Compound 57] | 10 to 50 |  | < 10 |  |
| NC(=O)OCC1(Nc2nc(N3C[C@H]4CN(c5ccc6c(c5)CC6)C[C@H]4C3)nc3c2[S@+]([O-])CC3)CCC1 [Compound 58] | 10 to 50 |  | < 10 |  |
| [O-][S@+]1CCc2nc(N3CC4CN(c5ccc6c(c5)CC6)CC4C3)nc(Nc3cccc(S(F)(F)(F)(F)F)c3)c21 (stereo partly drawn) [Compound 75-1] | 10 to 50 | 10 to 50 |  |  |
| CC#Cc1cnc(C2=CCN(c3nc4c(c(NC5(COC(F)F)CCC5)n3)[S@+]([O-])CC4)CC2)nc1 [Compound 92-1] | < 10 |  |  | Max inhibition (%) ([3]; hPBMC, 100 ng/mL LPS): 69.72%; IC50 [3, 4]: < 10 nM |
| CC#Cc1cnc(C2=CCN(c3nc4c(c(NC5(COC(F)F)CCC5)n3)[S@@+]([O-])CC4)CC2)nc1 [Compound 92-2] | 10 to 50 |  |  |  |

| SMILES | IC50 [1] [nM] | IC50 ([2]; read-out: PDE4B2 IC50) [nM] | IC50 [2] [nM] | also measured |
| --- | --- | --- | --- | --- |
| C#Cc1ccc(C2=CCN(c3nc4c(c(NC5([C@@H](C)O)CCC5)n3)[S@+]([O-])CC4)CC2)nc1 [Compound 95-1] | < 10 | < 10 |  |  |
| C#Cc1ccc(C2=CCN(c3nc4c(c(NC5([C@H](C)O)CCC5)n3)[S@@+]([O-])CC4)CC2)nc1 [Compound 95-4] | < 10 | < 10 |  |  |
| C#Cc1cnc(C2=CCN(c3nc4c(c(NC5([C@@H](C)O)CCC5)n3)[S@@+]([O-])CC4)CC2)nc1 [Compound 96-3] | 10 to 50 | < 10 |  |  |
| CC(C)(COC(N)=O)Nc1nc(N2CCC=C(c3ncc(Cl)cn3)CC2)nc2c1[S@+]([O-])CC2 [Compound 102-1] |  |  |  | Max inhibition (%) ([3]; hPBMC, 100 ng/mL LPS): 99.73%; IC50 [3, 4]: 10 to 50 nM |
| CC(C)(COC(N)=O)Nc1nc(N2CCC=C(c3ncc(Cl)cn3)CC2)nc2c1[S@@+]([O-])CC2 [Compound 102-2] |  |  |  | Max inhibition (%) ([3]; hPBMC, 100 ng/mL LPS): 87.54%; IC50 [3, 4]: < 10 nM |
| CC(C)(CO)Nc1nc(N2CC=C(c3ccc4c(c3)C[Si](C)(C)C4)CC2)nc2c1[S@+]([O-])CC2 [Compound 107] | 10 to 50 | 10 to 50 |  |  |
| CC(C)(COC(N)=O)Nc1nc(N2CC=C(c3ccc4c(c3)C[Si](C)(C)C4)CC2)nc2c1[S@+]([O-])CC2 [Compound 108] | 10 to 50 |  | 10 to 50 |  |
| CN1C[C@@H](Nc2nc(N3C[C@H]4CN(c5ccc6c(c5)CC6)C[C@H]4C3)nc3c2[S@+]([O-])CC3)CCC1=O [Compound 109-2] | 50 to 100 | 10 to 50 |  |  |
| CC#Cc1cnc2c(c1)OC[C@H]1CN(c3nc4c(c(NC(C)(C)COC(N)=O)n3)[S@+]([O-])CC4)CCN21 [Compound 112-2] | 50 to 100 | 10 to 50 |  |  |
| CC(C)(COC(N)=O)Nc1nc(N2CCN3c4ncc(C5CC5)cc4OC[C@H]3C2)nc2c1[S@+]([O-])CC2 [Compound 113-2] | 50 to 100 | 10 to 50 |  |  |
| CC(C)(COC(N)=O)Nc1nc(N2CC=C(c3ncc(C4CC4)cn3)C2)nc2c1[S@+]([O-])CC2 [Compound 116] | 50 to 100 |  | 10 to 50 |  |
| CC(C)(COC(N)=O)Nc1nc(N2CC=C(c3ncccn3)CC2)nc2c1[S@+]([O-])CC2 [Compound 118] | 10 to 50 |  | 10 to 50 |  |
| Cc1cnc(C2=CCN(c3nc4c(c(NC(C)(C)COC(N)=O)n3)[S@+]([O-])CC4)CC2)nc1 [Compound 122] | 10 to 50 |  | 10 to 50 |  |
| COc1cnc(C2=CCN(c3nc4c(c(NC(C)(C)COC(N)=O)n3)[S@+]([O-])CC4)CC2)nc1 [Compound 124] | 10 to 50 |  | 10 to 50 |  |
| CC(C)(COC(N)=O)Nc1nc(N2CC=C(c3ncc4c(n3)CCC4)CC2)nc2c1[S@+]([O-])CC2 [Compound 125] | 10 to 50 |  | 10 to 50 |  |
| CC(C)(COC(N)=O)Nc1nc(N2CC=C(c3ncc(C4CCC4)cn3)CC2)nc2c1[S@+]([O-])CC2 [Compound 126] | 10 to 50 |  | < 10 |  |
| CCOc1cnc(C2=CCN(c3nc4c(c(NC(C)(C)COC(N)=O)n3)[S@+]([O-])CC4)CC2)nc1 [Compound 128] | < 10 |  | < 10 |  |
| CC(C)c1cnc(C2=CCN(c3nc4c(c(NC(C)(C)COC(N)=O)n3)[S@+]([O-])CC4)CC2)nc1 [Compound 129] | 10 to 50 |  | < 10 |  |
| CC(C)(COC(N)=O)Nc1nc(N2CC=C(c3ncc(C(F)F)cn3)CC2)nc2c1[S@+]([O-])CC2 [Compound 130] | 10 to 50 |  | 10 to 50 |  |
| CC(C)(COC(N)=O)Nc1nc(N2CC=C(c3ncc4c(n3)CC4)CC2)nc2c1[S@+]([O-])CC2 [Compound 132] | 10 to 50 |  | 10 to 50 |  |
| CC(C)(CC#N)Nc1nc(N2CC=C(c3ncc(C4CC4)cn3)CC2)nc2c1[S@+]([O-])CC2 [Compound 134] | < 10 | < 10 |  |  |
| N#CCC1(Nc2nc(N3CC=C(c4ncc(C5CC5)cn4)CC3)nc3c2[S@+]([O-])CC3)CCC1 [Compound 135] | < 10 |  | < 10 |  |
